For the assay, the system named is late differentiated cultured human keratinocytes (LDKs). Briefly: Ceramide growth test in cultured human keratinocytes (LC-ESI-MS/MS quantification of ceramide species). It is filed as cell-based. The procedure:
Experiments were conducted using undifferentiated and late differentiated cultured human keratinocytes (KCs). Human keratinocytes were cultured in a serum-free KC growth medium containing 0.07 mM calcium, and collected to be undifferentiated cells when KCs occupied up to about 60% to 70% of the total area of the culture petri dish (about 60% to 70% confluence). KCs were cultured in a serum-free KC growth medium containing 0.07 mM of calcium, and the medium was replaced with DMEM containing 10% fetal bovine serum containing 1.2 mM of calcium, 10 μg/mL insulin, 0.4 μg/mL hydrocortisone, and 50 μg/mL of vitamin C and Ham's F-12 (2:1, v/v) when KCs occupied up to about 70% to 80% of the total area of the culture petri dish (about 70% to 80% confluence), followed by culturing for 8 days. Next, cells cultured for 3 days in a DMEM medium containing 10% fetal bovine serum containing 1.2 mM of calcium, 10 μg/mL insulin, 0.4 μg/mL hydrocortisone, and 50 μg/mL of vitamin C were used as late differentiated cultured human keratinocytes (LDKs).
From the second day of culture to the fourth, sixth, eighth, ninth, and tenth days, the ceramide preparation (I % ceramide NDS solution) prepared in Example 1 was diluted with a medium, filtered with a filter paper having a pore size of 0.45 μm, and 15.9 μL, 79.6 μL, and 397.7 μL (=10 μM, 50 μM, 250 μM) thereof were added, separately. In addition, 79.6 μL of a Blk solution not containing ceramide prepared in Comparative Example 1 was added, followed by culturing.
100 μg of each of the culture solutions prepared above and 100 μmol of an internal standard substance mixture (C17 (carbon number 17)-ceramide NS=N-octadecanoylamino-C17 sphingosine, C17-sphingosine, C17-dihydrosphingosine) were added to a mixed solution of a 0.1 N HCl aqueous solution: chloroform: methanol (volume ratio 1:2:1) and stirred, and then the organic phase of the lower layer was dried in vacuo, and the extraction drying operation was repeated twice. The obtained residue was dissolved in 200 μl of a methanol/acetonitrile equivalent mixture, and analyzed by the following liquid chromatography tandem mass spectrometry (LC-ESI-MS/MS) system (API 3200 QTRAP mass, ABCIEX). […]
10 μL of the extracted sample was analyzed by HPLC (HTS HPLC system manufactured by Shiseido Co., Ltd.) with a reverse phase KINTEX C18 column (2.1×50 mm, ID=2.6 μm). The column was previously equilibrated with a solvent A (MeOH: 0.05% formic acid aqueous solution: 80:20), the lipid was dissolved in a solvent B(2-propanol:0.05% formic acid methanol solution: 99:1), and a mass spectrum was detected in a positive mode by electrospray ionization with a gradient applied at a flow rate of 0.3 ml/min. […]

Molecules are shown by their SMILES.

Consider `CCCCCCCCCCCCCCCCCC(=O)N[C@@H](CO)[C@H](O)CCCCCCCCCCCCCCC` [ceramide NDS, (2S,3R)-2-octadecanoylaminooctadecane-1,3-diol], for which the “ceramide NSs (acyl chain length 14 to 26) amount” value (Example 1 preparation added at 10 μM, 50 μM, 250 μM, 10 days culture, p<0.01 vs LDK without ceramide NDS, FIG. 4) is recorded as “significantly increased”. Where the note is “Example 1 preparation added at 10 μM, 50 μM, 250 μM, 10 days culture, p<0.01 vs LDK without ceramide NDS, FIG. 5”, the “ceramide NDSs (different acyl chain lengths of 14 to 26) amount” value is recorded as “significantly increased”. The “ceramide EOSs (ω-hydroxy acid amide bond of 30 and 32 carbon atoms, esterified with linoleic acid at ω-position) amount” value (Example 1 preparation added at 10 μM, 50 μM, 250 μM, 10 days culture, p<0.01 vs LDKs without ceramide NDS, FIG. 3) was “significantly increased”. For the setting “ceramide preparation added to keratinocyte culture”, the “growth of various ceramide species” value is “are grown”.

The record behind these values is patent US20240197610A1, “CERAMIDE GROWTH PROMOTING AGENT” (TAKASAGO INTERNATIONAL CORPORATION, priority 2020, published 2024).
